Assay: Solubility of Evercool 180 alone in solvent under regular conditions
Assay type: physicochemical

Soluble in menthol (at 65° C. under regular conditions): 17% | Soluble in peppermint oil (at room temperature under regular conditions): 12% | Solubility in Orange oil (1× Brazilian) (under regular conditions): > 1%
SMILES: CC(C)[C@@H]1CC[C@@H](C)C[C@H]1C(=O)Nc1ccc(CC#N)cc1 [Evercool™ 180, (1R,2S,5R)—N-(4-(cyanomethyl)phenyl)-2-isopropyl-5-methylcyclohexane-carboxamide]

From patent US20110091531A1, “Cooling Composition” (GIV AUDAN SA, priority 2008, published 2011)
